Assay results from patent US20250282794A1 (CURADEV PHARMA LTD, priority 2022, published 2025).

Biological target: recombinant full length HPK-1 enzyme (Homo sapiens (Human), UniProt Q92918)
Test: HPK-1 biochemical enzyme assay (ADP-Glo kinase inhibition)
Conditions: recombinant full length HPK-1 6.8 nM, 10 μM ATP, 12.5 μM MBP, 30 mins at 25° C.
Procedure, shortened: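 Recombinant full-length human HPK-1 (6.8 nM) incubated 30 min at 25° C. with 10 μM ATP and 12.5 μM swine MBP in 40 mM Tris pH 7.4, 20 mM MgCl2, 50 μM DTT, 0.1 mg/mL BSA. ADP measured by ADP-Glo; IC50 from 10 concentrations, normalized to no-enzyme and vehicle controls.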

recombinant full length HPK-1 enzyme, sequence (Q92918 whole entry, species assumed): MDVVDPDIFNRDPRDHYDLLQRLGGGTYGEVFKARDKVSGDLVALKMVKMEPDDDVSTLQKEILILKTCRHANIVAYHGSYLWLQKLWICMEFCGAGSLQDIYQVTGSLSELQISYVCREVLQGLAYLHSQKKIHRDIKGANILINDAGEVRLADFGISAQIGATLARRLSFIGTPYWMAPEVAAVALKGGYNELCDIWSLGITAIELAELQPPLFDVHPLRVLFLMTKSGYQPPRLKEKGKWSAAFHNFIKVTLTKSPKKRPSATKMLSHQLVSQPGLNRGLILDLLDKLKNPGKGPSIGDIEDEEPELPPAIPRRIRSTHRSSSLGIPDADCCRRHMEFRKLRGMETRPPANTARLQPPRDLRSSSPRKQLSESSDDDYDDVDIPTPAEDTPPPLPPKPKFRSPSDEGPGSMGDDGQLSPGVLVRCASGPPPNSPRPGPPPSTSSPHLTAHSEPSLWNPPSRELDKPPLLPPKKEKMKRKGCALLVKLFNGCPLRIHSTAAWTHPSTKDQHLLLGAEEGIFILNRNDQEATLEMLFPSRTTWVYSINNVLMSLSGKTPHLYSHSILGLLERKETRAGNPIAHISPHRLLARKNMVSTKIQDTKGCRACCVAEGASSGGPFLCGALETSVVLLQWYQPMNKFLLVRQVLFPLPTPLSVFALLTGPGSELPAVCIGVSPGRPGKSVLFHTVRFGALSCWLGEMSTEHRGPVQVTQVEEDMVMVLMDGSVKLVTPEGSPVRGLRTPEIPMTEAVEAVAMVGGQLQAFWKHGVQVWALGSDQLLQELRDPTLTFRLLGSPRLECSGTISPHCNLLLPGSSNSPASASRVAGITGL

| IC50 [nM] | Compound |
| --- | --- |
| 10 to 100 | Cc1c(Nc2cc[nH]c(=O)c2C(=O)Nc2ccc(N3CCN(C(C)C)CC3)cc2)cnc2c1NCC(C)O2 (stereo not drawn) [Example 405, 4-((3,8-dimethyl-2,3-dihydro-1H-pyrido[2,3-b][1,4]oxazin-7-yl)amino)-N-(4-(4-isopropylpiperazin-1-yl)phenyl)-2-oxo-1,2-dihydropyridine-3-carboxamide] |
| 10 to 100 | COCCCN1CCN(c2ccc(NC(=O)c3c(Nc4cnc5c(c4C)NCC(C)O5)cc[nH]c3=O)cc2)CC1 (stereo not drawn) [Example 406, 4-((3,8-dimethyl-2,3-dihydro-1H-pyrido[2,3-b][1,4]oxazin-7-yl)amino)-N-(4-(4-(3-methoxypropyl)piperazin-1-yl)phenyl)-2-oxo-1,2-dihydropyridine-3-carboxamide] |
| 10 to 100 | Cc1c(Nc2cc[nH]c(=O)c2C(=O)Nc2ccc(N3CCN(c4ccn(C)n4)CC3)cc2)cnc2c1NCC(C)O2 (stereo not drawn) [Example 407, 4-((3,8-dimethyl-2,3-dihydro-1H-pyrido[2,3-b][1,4]oxazin-7-yl)amino)-N-(4-(4-(1-methyl-1H-pyrazol-3-yl)piperazin-1-yl)phenyl)-2-oxo-1,2-dihydropyridine-3-carboxamide] |
| 10 to 100 | Cc1c(Nc2cc[nH]c(=O)c2C(=O)Nc2ccc(N3CCN(C)CC3CO)cc2)cnc2c1NCCO2 (stereo not drawn) [Example 408, N-(4-(2-(hydroxymethyl)-4-methylpiperazin-1-yl)phenyl)-4-((8-methyl-2,3-dihydro-1H-pyrido[2,3-b][1,4]oxazin-7-yl)amino)-2-oxo-1,2-dihydropyridine-3-carboxamide] |
| 10 to 100 | Cc1c(Nc2cc[nH]c(=O)c2C(=O)Nc2cnn(CC(F)(F)F)c2)cnc2c1NCCO2 [Example 409, 4-((8-methyl-2,3-dihydro-1H-pyrido[2,3-b][1,4]oxazin-7-yl)amino)-2-oxo-N-(1-(2,2,2-trifluoroethyl)-1H-pyrazol-4-yl)-1,2-dihydropyridine-3-carboxamide] |
| 10 to 100 | Cc1c(Nc2cc[nH]c(=O)c2C(=O)Nc2ccc(N3CCN(c4cnn(C)c4)CC3)cc2)cnc2c1NCCO2 [Example 410, N-(4-(4-(1-methyl-1H-pyrazol-4-yl)piperazin-1-yl)phenyl)-4-((8-methyl-2,3-dihydro-1H-pyrido[2,3-b][1,4]oxazin-7-yl)amino)-2-oxo-1,2-dihydropyridine-3-carboxamide] |
| 10 to 100 | Cc1c(Nc2cc[nH]c(=O)c2C(=O)Nc2ccc(N3CCC(C4CC4)CC3)cc2)cnc2c1NCCO2 [Example 411, N-(4-(4-cyclopropylpiperidin-1-yl)phenyl)-4-((8-methyl-2,3-dihydro-1H-pyrido[2,3-b][1,4]oxazin-7-yl)amino)-2-oxo-1,2-dihydropyridine-3-carboxamide] |
| 10 to 100 | Cc1c(Nc2nc[nH]c(=O)c2C(=O)Nc2ccc(N3CCN(C(C)C)CC3)cc2)cnc2c1NCCO2 [Example 412, N-(4-(4-isopropylpiperazin-1-yl)phenyl)-4-((8-methyl-2,3-dihydro-1H-pyrido[2,3-b][1,4]oxazin-7-yl)amino)-6-oxo-1,6-dihydropyrimidine-5-carboxamide] |
| 10 to 100 | COCCN1CCN(c2ccc(NC(=O)c3c(Nc4cnc5c(c4C)NCCO5)nc[nH]c3=O)cc2)CC1 [Example 413, N-(4-(4-(2-methoxyethyl)-piperazin-1-yl)phenyl)-4-((8-methyl-2,3-dihydro-1H-pyrido[2,3-b][1,4]oxazin-7-yl)amino)-6-oxo-1,6-dihydropyrimidine-5-carboxamide] |
